From patent US11229620B2, “3-methanesulfonylpropionitrile for treating inflammation and/or pain” (OLATEC THERAPEUTICS LLC, priority 2010, dated 2022)

Key:
TNFα = assay: In vitro cytokine release from human PBMCs: TNFα; assay type: cell-based; conditions: PBMC, lipopolysaccharide 50 pg/mL, 24 hours, read-out: inhibited the release of TNFα
Method: (§1) 3-methanesulfonylpropionitrile (MSPN, prepared according to Example 1 was tested for its effects on in vitro cytokine release from human peripheral blood mononuclear cells (PBMCs). Secretion of cytokines by PBMCs plays a significant role in the inflammatory response.
(§2) MSPN was added to cultures of fresh human PBMCs at 162 μM (22 μg/mL) in duplicate. One hour later, PBMCs were stimulated to secrete cytokines using the mitogens lipopolysaccharide and concanavalin A (ConA). Lipopolysaccharide at 50 pg/mL was used to stimulate the release of interleukin IL-1β, IL-6 and tumor necrosis factor TNFα. ConA at 20 μg/mL was used to stimulate the release of IL-4 and ConA at 5 μg/mL was used to stimulate interferon IFNγ. The corticosteroid dexamethasone (100 nM) was used as a positive control. After 24 hours of incubation, the supernatants were assayed for the cytokines using the Luminex Bead kit. MSPN at 22 μg/mL inhibited the release of IL-1β, IL-6, TNFα, IL-4 and IFNγ by 95%, 98%, 98%, 7% and 21%, respectively. Dexamethasone inhibited the release of IL-1β, IL-6, TNFα, IL-4 and IFNγ by 24%, 60%, 42%, 93% and 87%, respectively.

IL-6 = assay: In vitro cytokine release from human PBMCs: IL-6; assay type: cell-based; conditions: PBMC, lipopolysaccharide 50 pg/mL, 24 hours, read-out: inhibited the release of IL-6
Method: as §1, §2

IL-4 = assay: In vitro cytokine release from human PBMCs: IL-4; assay type: cell-based; conditions: PBMC, ConA 20 μg/mL, 24 hours, read-out: inhibited the release of IL-4
Method: as §1, §2

IL-1β = assay: In vitro cytokine release from human PBMCs: IL-1β; assay type: cell-based; conditions: PBMC, lipopolysaccharide 50 pg/mL, 24 hours, read-out: inhibited the release of IL-1β
Method: as §1, §2

IFNγ = assay: In vitro cytokine release from human PBMCs: IFNγ; assay type: cell-based; conditions: PBMC, ConA 5 μg/mL, 24 hours, read-out: inhibited the release of IFNγ
Method: as §1, §2

[1] = system: arachidonic acid induced ear swelling; assay: Topical arachidonic acid induced ear swelling model in mice; assay type: in vivo; conditions: 30 min before and 15 min after challenge, at 90 minutes
Method: Purified 3-methanesulfonylpropionitrile (MSPN, prepared according to Example 2) was dissolved in vehicle (ethanol/acetone 1:1) to 5% (w/v). The active compound, indomethacin (positive control in vehicle), and vehicle were evaluated for anti-inflammatory activity in the topical arachidonic acid induced ear swelling model in mice.
Male ICR derived mice weighing 22±2 g were used in this experiment. 5 mice were used for each group (active compound, positive control, and vehicle). All animals were maintained in a controlled temperature (22-24° C.) and humidity (60%-70%) environment with 12-hour light/dark cycles for at least one week prior to use.
Arachidonic acid (2 mg in 20 μL acetone) was applied topically onto the anterior and posterior surfaces of the right ear of test animals to induce inflammation. MSPN in vehicle (20 μL), indomethacin (0.3 mg) in vehicle, and vehicle (20 μL) was each applied 30 minutes before and 15 minutes after arachidonic acid challenge. At 90 minutes after arachidonic acid induction of ear edema, the thickness of the right ear and the left ear was measured and the difference calculated as an indication of the inflammation in the right ear. Significant activity is defined as a reduction (inhibition) in arachidonic acid induced ear swelling by ≥30% relative to the vehicle-treated group.

[2] = Oral systemic toxicity administration in dogs; assay type: in vivo
[3] = Storage stability of the isolated product at room temperature; assay type: physicochemical; conditions: oil or solid form, enclosed vessel, room temperature (22-28° C.)
Description: In a preferred embodiment, the water-immiscible organic solvent is ethyl acetate. After the aqueous phase is removed, the ethyl acetate solvent is removed from the product by any means known to a person skilled in the art. For example, the ethyl acetate solvent can be removed by evaporation such as rotary evaporation or drying under nitrogen gas. After the ethyl acetate solvent is removed, the product 3-methanesulfonylpropionitrile is obtained in an oil form or in a solid form, which is stored in an enclosed vessel (such as a capped vial or bottle) and is stable for at least 1-3 months at room temperature (22-28° C.).

[4] = Oral systemic toxicity administration in rats; assay type: in vivo
[5] = Systemic (plasma) exposure of MSPN after oral and subcutaneous administration to rats; assay type: in vivo; conditions: after both the oral and subcutaneous routes
Method: This study was done to determine the systemic (plasma) exposure of MSPN after administration by the oral and subcutaneous routes to rats.
MSPN substance was prepared in water for oral administration and in saline for subcutaneous administration. Rats weighed 282 to 295 g were used in the study. Male rats (n=2) were given a single dose at 50, 160 or 500 mg/kg by both oral and subcutaneous routes. Female rats (n=2) were dosed only at 500 mg/kg by both oral and subcutaneous routes. The blood was drawn from each rat at 0.25, 1, 2, 3, 4, 6, 12, 24, and 48 hours and measured for MSPN concentration by LC/MS/MS.

Compound: C[C@@H]1C[C@H]2[C@@H]3CCC4=CC(=O)C=C[C@]4(C)[C@@]3(F)[C@@H](O)C[C@]2(C)[C@@]1(O)C(=O)CO [Dexamethasone, dexamethasone, reference compound]
- inhibition at 0.1 µM (TNFα; dexamethasone 100 nM): 42%
- inhibition at 0.1 µM (IL-6; dexamethasone 100 nM): 60%
- inhibition at 0.1 µM (IL-4; dexamethasone 100 nM): 93%
- inhibition at 0.1 µM (IL-1β; dexamethasone 100 nM): 24%
- inhibition at 0.1 µM (IFNγ; dexamethasone 100 nM): 87%

Compound: COc1ccc2c(c1)c(CC(=O)O)c(C)n2C(=O)c1ccc(Cl)cc1 [indomethacin, reference compound]
- decrease in the ear swelling induced by arachidonic acid relative to vehicle-treated group ([1]; 0.3 mg in vehicle topical): 60%

Compound: CS(=O)(=O)CCC#N [MSPN, 3-methanesulfonylpropionitrile]
- inhibition at 162 µM (TNFα; MSPN at 22 μg/mL (162 μM)): 98%
- effects seen after oral, systemic toxicity administration ([2]; dog, in vivo, po): mild physiological effects including decreased body temperature, decreased respiratory rate, increased blood pressure and increased heart rate
- doses at which effects were seen, above expected human therapeutic doses ([2]; dogs, oral): over 2000 fold
- stable on storage [3]: 1-3 months
- inhibition at 162 µM (IL-6; MSPN at 22 μg/mL (162 μM)): 98%
- inhibition at 162 µM (IL-4; MSPN at 22 μg/mL (162 μM)): 7%
- inhibition at 162 µM (IL-1β; MSPN at 22 μg/mL (162 μM)): 95%
- inhibition at 162 µM (IFNγ; MSPN at 22 μg/mL (162 μM)): 21%
- effects seen after oral, systemic toxicity administration ([4]; rat, in vivo, po): mild physiological effects including decreased body temperature, decreased respiratory rate, increased blood pressure and increased heart rate
- doses at which effects were seen, above expected human therapeutic doses ([4]; rats, oral): over 2000 fold
- bioavailability [5]: significant bioavailability
- decrease in the ear swelling induced by arachidonic acid relative to vehicle-treated group ([1]; 5% (w/v) in ethanol/acetone 1:1, 20 μL topical): 31%
